Results from PubChem BioAssay AID179 (DTP/NCI, 2004).
Values joined by “and” are separate entries in the source; they are usually repeats but may differ in a detail not shown here. Equal values may be shown once. Active and inactive are the calls of the source.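 The calls were made as follows: active = compounds giving half or more protection of infected cells from virus-caused growth loss, again on retest; inactive = the rest.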

System: CEM cells HIV-1 protection, formazan growth assay
Assay: NCI AIDS Antiviral Assay
Settings: for IC50: measured here: growth of uninfected CEM cells
Summary of the method: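 Human CEM cells, uninfected and HIV-1-infected, exposed to five drug concentrations; growth measured by soluble formazan assay and scored as percent protection from infection, with protecting compounds retested.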

Structure (SMILES)	EC50 [µM]	IC50	outcome
COc1ccc2c3ccc4c(c3n(C)c2c1)C(=O)C=CC4=O	> 3.55	> 3.55 µM	–
C=C1C(=O)OC2C=CCCCC12 (centres undefined)	> 53.7	4.68 µM	–
O=C1C2=C(Nc3cc([N+](=O)[O-])ccc3N2)OC1c1ccccc1 (centres undefined)	> 17	> 17 µM	–
CC(C)SC(C)(NC(=O)C1C(C)(C)CCC1(C)C)C(=O)O (centres undefined)	> 200	> 200 µM	–
c1ccc(-c2cc(-c3cccs3)c(-c3cccs3)s2)cc1	> 200	36.3 µM	–
C[Si](C)(C)c1ccc(-c2sc(-c3ccc([Si](C)(C)C)s3)c3c2C[Si]2(C3)Cc3c(-c4ccc([Si](C)(C)C)s4)sc(-c4ccc([Si](C)(C)C)s4)c3C2)s1	> 5.75	> 5.75 µM	–
O=C1NC(Nc2ccccc2)=NC(C(F)(F)F)(C(F)(F)F)N1	> 200	36.3 µM	–
NC(=O)C1C[C@@H](O)CN1C(=O)c1ccc2c(c1)OCO2 (some centres undefined)	> 200	> 200 µM	–
CO/N=C1\CC(n2cc(C)c(=O)[nH]c2=O)OC1CO (centres undefined)	> 200	> 200 µM	–
CC(=O)OCC1OC(n2c(N)c(C#N)c(-c3ccccc3)c(C#N)c2=S)C(OC(C)=O)C(OC(C)=O)C1OC(C)=O (centres undefined)	> 200	> 200 µM	–
C=C1c2ccccc2N(S(=O)(=O)c2ccc(C)cc2)C12CCCCC2	> 100	38 µM	–
CC(=O)NNc1nc(C)c(C(/C=C/c2ccc(/C=C/C(=N\NC(=O)c3ccncc3)c3sc(NNC(C)=O)nc3C)cc2)=N/NC(=O)c2ccncc2)s1	> 13.2	> 13.2 µM	–
O=C(/C=C/c1cc(F)ccc1F)OCCc1ccccc1	–	141 µM	inactive
COC(=O)C1=C2c3ccccc3NC(=O)N2NC1C(=O)OC (centres undefined)	> 550	501 µM	–
O=C1C(Cl)=C(Cl)C(=O)N1c1ccccc1Cl	–	–	inactive
c1ccc(-c2cc(-c3cccs3)c(-c3cccs3)o2)cc1	> 200	25.7 µM	–
N#Cc1c(-c2ccccc2)c(C#N)c(=O)n(C2OC(CO)C(O)C(O)C2O)c1S (centres undefined)	> 200	> 200 µM and 141 µM	–
CN(C(=O)c1cccs1)C(=S)N1CCN(c2ccccc2)CC1	> 55	30.9 µM	–
Cc1cc2occ(S(=O)(=O)NC(=O)Nc3ccc(Cl)cc3)c(=O)c2c(=O)o1	> 200	151 µM	–
CCC(CC)(CO)CNc1cc(Cl)nc(N)n1	> 200	> 100 µM	–
CCOC(=O)C1(Cc2ccccc2)Cc2ccccc2C1=O (centres undefined)	> 200	37.2 µM	–
COc1ccc(-n2nc(C)ccc2=O)cc1	> 1150	776 µM	–
O=c1oc2ccccc2c(O)c1C(c1ccc(Cl)cc1)c1c(O)c2ccccc2oc1=O	> 200	26.3 µM	–

Structure (SMILES)	EC50 [µM]	IC50	outcome
Cc1ccc2c(c1)C(=O)CC1CC(=O)c3ccccc3C21 (centres undefined)	> 200	> 200 µM	–
CC(C)N(C(=O)C12C3C4C1C1C4(C#N)C3C12C#N)C(C)C (centres undefined)	> 129	> 129 µM	–
CC1=C(C)C(=O)C(C2=C(C3=CC(=O)C(C)=C(C)C3=O)C(=O)c3ccccc3C2=O)=CC1=O	> 200	5.62 µM	–
CC(=O)N/C(=C\c1cccc([N+](=O)[O-])c1)c1nc2c3c(ccc2[nH]1)C(=O)c1ccccc1C3=O	–	–	inactive
Nc1nc(N)c(CCCCc2ccccc2)c(N)n1	–	–	inactive
COc1cc(CNC(=O)CCCCCCCCCCSC#N)ccc1O	> 200	27.5 µM	–
CN(/N=C/c1ccnc2ccccc12)c1ccc([N+](=O)[O-])cc1[N+](=O)[O-]	–	–	inactive
CCCCN(C)C(=O)COc1cc2c(O)c3c(O)c(C)c4c(c13)C(=O)C(C)(O/C=C/C(OC)C(C)C(OC(C)=O)C(C)C(O)C(C)C(O)C(C)/C=C/C=C(\C)C(=O)N2)O4 (centres undefined)	28.2	28.8 µM	–
CC1(C)OC(=O)C(c2ccsc2)C(=O)O1	> 1100	589 µM	–
C/C(=N\NC(N)=O)C(CN1CCCCC1)C(c1ccccc1)c1c(O)c2ccccc2oc1=O (centres undefined)	> 87.1	46.8 µM	–
COc1cccc(NCC(=O)Nn2c(-c3ccccc3)nc3ccccc3c2=O)c1	> 200	112 µM	–
COC1=CC(O)(CC(N)=O)c2ccccc2C1=O (centres undefined)	> 1000	> 1000 µM	–
O=C1COc2ccc(F)cc2N1	> 380	> 380 µM	–
CN(C)c1cc2ccccc2oc1=O	> 692	> 692 µM	–
CCCC1C(=O)Nc2cccc3ncn(c23)C1=O (centres undefined)	> 200	186 µM	–
COC(=O)c1cn2ccc3ccccc3c2c1C(=O)OC	> 200	> 100 µM	–
CC1(C)CC(=O)C(/C=N/c2nc(-c3ccc(Br)cc3)cs2)=C(O)C1	> 200	115 µM	–
COc1ccc(/C(C)=N/N=C\c2cc(OC)c(OC)c(OC)c2)cc1	> 200	> 200 µM	–
COC(=O)N/N=C(/CCN1CCCC1)CC(c1ccccc1)c1c(O)c2ccccc2oc1=O (centres undefined)	> 89.1	83.2 µM	–
Cc1ccc(C)c2sc3cc(=O)ccc-3nc12	> 107	> 107 µM	–
O=C(O)c1ccccc1CC(Cc1ccc2c(c1)CCC2)C(=O)O (centres undefined)	> 200	> 200 µM	–
Nc1nc2ncn(CC(O)CO)c2c(=O)[nH]1 (centres undefined)	> 60.3	> 60.3 µM	–
c1ccc2c3c(ccc2c1)CN1CCCCC1C3 (centres undefined)	> 676	49 µM	–

Structure (SMILES)	EC50 [µM]	IC50	outcome
O=c1[nH]n(Cc2ccccc2CCl)c2ccc([N+](=O)[O-])cc12	> 200	38 µM	–
COc1ccc(C(=O)C(c2ccc(OC)cc2)C2(O)C(=O)Nc3c2ccc(Cl)c3C)cc1 (centres undefined)	> 11.5	> 11.5 µM	–
N#Cc1nc(-c2cc([N+](=O)[O-])cc([N+](=O)[O-])c2)oc1N	> 100	> 100 µM	–
CCN(CC)C(=S)SS(=O)(=O)c1ccc(F)cc1	> 200	18.6 µM	–
OC(Cc1cccc2ccccc12)CN1CCC(c2ccccc2)CC1 (centres undefined)	> 93.3	28.8 µM	–
Brc1ccc(-c2ccc(-c3ccc(-c4ccc(Br)s4)s3)s2)s1	> 200	> 200 µM	–
CN(CCN1C(=O)c2cccc3cccc(c23)C1=O)CCN1C(=O)c2cccc3cccc(c23)C1=O	> 26.3	9.12 µM	–
COc1ccc2nc3cc(Cl)ccc3c(NC(C)CCCN(C)C)c2n1 (centres undefined)	> 2	1.02 µM	–
Cc1cc(Cc2cccc3ccccc23)nc2c1ccc1ccccc12	> 200	110 µM	–
CC1CCCC(C)N1Cc1cccnc1 (centres undefined)	–	–	inactive
CCOC(=O)C1SC(=Nc2ccc(Cl)cc2C)N=C1C (centres undefined)	> 32.4	> 32.4 µM	–
O=C1C(=O)N(c2cc(Cl)ccc2Cl)C(=O)C(=O)C1c1nc2ccccc2s1	–	–	inactive
COc1nc(N)c(N(C(C)=O)C(C)=O)c(=O)[nH]1	–	–	inactive
CCOC(=O)Nc1ccc2nc(Sc3ccc(C)cc3)sc2c1	> 20.9	1.23 µM	–
CC(=O)c1cccc(NC(=O)C(=O)C(c2cnc3ccc([N+](=O)[O-])cc3n2)[N+](=O)[O-])c1 (centres undefined)	> 117	> 117 µM	–
O=C(N/N=C1\CCc2ccccc21)N/N=C1\CCc2ccccc21	> 200	> 200 µM	–
CN(C(=O)c1ccccc1)c1ccc2c(c1)C(=O)c1ccccc1C2=O	> 15.1	> 15.1 µM	–
CCC1=C(OC)c2nc(C)ccc2C(=O)C1=O	–	–	inactive
Nc1nc(N)c(C2=CCNCC2)c(=O)[nH]1	> 200	> 200 µM	–
N#CCCN(CCC#N)c1ccc(/C=C2\N=C(c3cc([N+](=O)[O-])ccc3Cl)OC2=O)cc1	> 2.34	0.575 µM	–
C/C=C1\CC(C(=O)OCC)CCCCCCCCCCC1=O (centres undefined)	> 200	8.51 µM	–
CCOC(=O)C1CN(C2CC2)CCC1=O (centres undefined)	> 200	> 200 µM	–
O=[N+]([O-])C(=C(Cl)Cl)/C(Cl)=C(\Cl)Br	–	–	inactive

Structure (SMILES)	EC50 [µM]	IC50	outcome
COC(=O)C1=C(C)N2CCOC2(C)C(C(=O)OC)C1c1ccc[nH]1 (centres undefined)	> 200	> 200 µM	–
O=C1OCc2cccc3c2-c2c1cccc2C(=O)OC3	–	–	inactive
O=N/C(=C(\c1ccccc1)N1CCOCC1)c1ccccc1	–	–	inactive
O=C1C[C@@H]2[C@@H](c3ccccc3)[C@@H]3C(=O)c4ccccc4NC(=O)[C@H]3[C@]2(O)c2ccccc2N1	26.9	30.9 µM	–
COc1ccc(-c2coc3c4c(c(CC=C(C)C)c(O)c3c2=O)OC(C)(C)C=C4)cc1OC	> 100	> 100 µM	–
CCN(CC)c1ccc2cc(-c3nc4ccccc4n3C)c(=O)oc2c1	> 7.59	0.437 µM	–
CC(=O)NCCSSCc1ccccc1CS(=O)O	> 200	105 µM	–
O=c1[nH]c(=S)c2cncnc2n1C1OC(CO)C(O)C1O (centres undefined)	> 200	> 200 µM	–
Brc1ccc2[nH]c3nc(N/N=C/c4cccs4)nnc3c2c1	> 200	> 200 µM	–
O=c1oc2ccc(O)cc2c2ccccc12	> 170	38 µM	–
COc1cc(-c2ccc(Br)[nH]2)[nH]c1C=NCC(C)C	> 200	10.5 µM	–
Nc1ccc([N+](=O)[O-])c(S(=O)(=O)O)c1	> 1150	> 1150 µM	–
COC(=O)N1CC(=O)C(C(=O)NC23CC4CC(CC(C4)C2)C3)C1 (centres undefined)	> 776	141 µM	–
Cc1cc(C)c(C#N)c(SSC(Cl)(Cl)Cl)n1	> 200	32.4 µM	–
O=C(c1ccccc1)N1CN(C(=O)c2ccccc2)CN(C(=O)c2ccccc2)C1	> 200	30.2 µM	–
O=c1n(CCO)nc2n1CCCN2	> 200	> 200 µM	–
C=CCOC1=C(OC(C)=O)C(C2COC(C)(C)O2)OC1=O (centres undefined)	> 200	16.2 µM	–
COC(=O)[C@]12CCC(=O)N1[C@H](C(=O)O)Cc1c2[nH]c2ccccc12	> 200	> 200 µM	–
O=S(=O)(O)c1cc(Nc2ccnc3ccccc23)c2c(S(=O)(=O)O)cc(S(=O)(=O)O)cc2c1	> 200	> 200 µM	–
OC1NC2CC3NC(O)C(O)NC3CC2NC1O (centres undefined)	> 100	> 100 µM	–
O=c1[nH][nH]c(=O)c2ncccc12	> 200	> 200 µM	–
